Structures are written as SMILES.

The record followed here is the supplement of paper PMC11061612.

Holding throughout (assay): combination Emax (second highest fraction inhibited in the dose matrix, 72 h); higher = more inhibition; extreme values may be limits of the assay
For one experiment, the system named is NCI-H2591 (Mesothelioma). The method in brief: (§1)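 Cell lines grown in DMEM/F12 or RPMI with 10% FBS were plated in 1536-well plates and held 24 hours at 37°C, 5% CO2 before 72 hours of exposure to two-drug dose matrices, with DMSO typically at 0.2%. CellTiter-Glo 2.0 luminescence gave viability, which was converted to inhibition. Vehicle wells were set to 0 and blank wells to 1. Combination Emax is the second-highest inhibition in the matrix, and Bliss excess is the observed combination effect minus the expected EA + EB − EA·EB, where EA and EB are the single-agent effects.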

The next experiment deals with 8-MG-BA (Glioblastoma). The procedure, abridged: as §1
The subject of experiment [1] is PANC-10-05 (Pancreatic Carcinoma). The procedure, abridged:
as §1

In the next experiment the test system is IGR-37 (Melanoma). The method in brief:
as §1

Experiment [2] has as its system NCI-H1581 (Non-Small Cell Lung Carcinoma). The method in brief:
as §1

Experiment [3] relates to TT (Thyroid Gland Carcinoma). The procedure, abridged: as §1
In experiment [4] the test system is A3-KAW (B-Cell Non-Hodgkin's Lymphoma). The procedure, abridged: as §1
The test system of experiment [5] is CAL-29 (Bladder Carcinoma). The procedure, abridged: as §1
Another experiment deals with Hs-445 (Non-Cancerous). The procedure, abridged:
as §1

Experiment [6] concerns NCI-H1666 (Lung Adenocarcinoma). The procedure, abridged: as §1
The next experiment relates to A498 (Kidney Carcinoma). The procedure, abridged: as §1
Experiment [7] concerns CCK-81 (Colorectal Carcinoma). The procedure, abridged: as §1
The subject of experiment [8] is COLO-824 (Breast Carcinoma). The procedure, abridged: as §1
In experiment [9] the test system is SK-MG-1 (Low Grade Glioma). The method in brief: as §1
The next experiment deals with ARH-77 (Non-Cancerous). The method in brief:
as §1

In the next experiment the test system is GI-ME-N (Neuroblastoma). The procedure, abridged: as §1
Experiment [10] has as its system VCaP (Prostate Carcinoma). The method in brief:
as §1

Another experiment deals with NY (Osteosarcoma). The method in brief:
as §1

Experiment [11] concerns JSC-1 (B-Cell Non-Hodgkin's Lymphoma). The method in brief: as §1
In experiment [12] the test system is MDST8 (Colorectal Carcinoma). The procedure, abridged: as §1

Take `CC1(C)CCC(CN2CCN(c3ccc(C(=O)NS(=O)(=O)c4ccc(NCC5CCOCC5)c([N+](=O)[O-])c4)c(Oc4cnc5[nH]ccc5c4)c3)CC2)=C(c2ccc(Cl)cc2)C1` [Venetoclax] + C[C@@H](Nc1cc(F)cc(F)c1)c1cc(C(=O)N(C)C)cc2c(=O)cc(N3CCOCC3)oc12 [AZD8186] (first compound max 1 µM, 7x7, partner max 3 µM): the “combination Emax” value came to 0.118 in the experiment on NCI-H2591 (Mesothelioma); 0.133 with 8-MG-BA (Glioblastoma); 0.244 in experiment [1]; 0.46 in the experiment on IGR-37 (Melanoma); 0.182 in experiment [2]; 0.531 in experiment [3]. Further, the “combination Emax” value worked out at 0.302 in experiment [4]; 0.113 in experiment [5]; 0.612 in the experiment on Hs-445 (Non-Cancerous); 0.339 in experiment [6]; 0.632 in the experiment on A498 (Kidney Carcinoma); 0.0792 in [7]. For the same compound, the “combination Emax” value stood at 0.921 in experiment [8]; 0.387 in [9]; 0.724 in the experiment on ARH-77 (Non-Cancerous); 0.165 with GI-ME-N (Neuroblastoma); 0.188 in experiment [10]; 0.616 with NY (Osteosarcoma). Further, the results for the “combination Emax” value in [11] and in [12] were 0.0196 and 0.0955, respectively.

As to `CC1(C)CCC(CN2CCN(c3ccc(C(=O)NS(=O)(=O)c4ccc(NCC5CCOCC5)c([N+](=O)[O-])c4)c(Oc4cnc5[nH]ccc5c4)c3)CC2)=C(c2ccc(Cl)cc2)C1` [Venetoclax] + Cc1cc2ncnn2cc1Nc1ncc2c(n1)n(C1CCOCC1)c(=O)n2C [AZD7648] (first compound max 1 µM, 7x7, partner max 10 µM), the “combination Emax” value with NCI-H2591 (Mesothelioma) came out at 0.315; in the experiment on 8-MG-BA (Glioblastoma), 0.133; in experiment [1] it was 0.332; with IGR-37 (Melanoma) it was 0.556; in experiment [2], 0.222; in [3], 0.601. In addition, the “combination Emax” value worked out at 0.417 in [4]; 0.209 in [5]; 0.405 in the experiment with Hs-445 (Non-Cancerous); 0.232 in experiment [6]; 0.381 with A498 (Kidney Carcinoma); 0.173 in experiment [7]. The “combination Emax” value in experiment [8] is 0.766; in [9] it was 0.28; in the experiment on ARH-77 (Non-Cancerous), 0.559; with GI-ME-N (Neuroblastoma), 0.186; in [10], 0.293; in the experiment on NY (Osteosarcoma) it was 0.578. The entries for the “combination Emax” value in experiment [11] and in experiment [12] were 0.205 and 0.245, respectively.

As for `CC1(C)CCC(CN2CCN(c3ccc(C(=O)NS(=O)(=O)c4ccc(NCC5CCOCC5)c([N+](=O)[O-])c4)c(Oc4cnc5[nH]ccc5c4)c3)CC2)=C(c2ccc(Cl)cc2)C1` [Venetoclax] + Cn1cnc2c(F)c(Nc3ccc(Br)cc3Cl)c(C(=O)NOCCO)cc21 [Selumetinib] (first compound max 1 µM, 7x7, partner max 3 µM), the “combination Emax” value in the experiment on NCI-H2591 (Mesothelioma) stood at 0.171; in the experiment on 8-MG-BA (Glioblastoma) it was 0.124; in experiment [1] it was 0.398; in the experiment on IGR-37 (Melanoma), 0.879; in experiment [2], 0.32; in experiment [3] it was 0.436. Besides, the “combination Emax” value in experiment [4] was found to be 0.216; in experiment [5] it was 0.245; in the experiment with Hs-445 (Non-Cancerous) it was 0.395; in experiment [6], 0.575; with A498 (Kidney Carcinoma), 0.433; in experiment [7] it was 0.369. Further, the “combination Emax” value in [8] is 0.829; in [9] it was 0.185; with ARH-77 (Non-Cancerous), 0.369; in the experiment on GI-ME-N (Neuroblastoma) it was 0.24; in experiment [10], 0.143; with NY (Osteosarcoma), 0.485. Moreover, the “combination Emax” value in experiment [11] was 0.271; in [12], 0.646.
